Test results reported in the CheMixHub viscosity set.

Experiment: xn = mol fraction of the nth substance listed

ClC(Cl)C(Cl)Cl + CCO
viscosity [mPa·s], 101.32 kPa
Settings | x2 = 0.167 | x2 = 0.3109 | x2 = 0.4362 | x2 = 0.5461 | x2 = 0.6435 | x2 = 0.7303 | x2 = 0.8081 | x2 = 0.8783 | x2 = 0.942
303.15 K | 1.369 | 1.324 | 1.257 | 1.21 | 1.166 | 1.12 | 1.095 | 1.047 | 1.026
313.15 K | 1.24 | 1.16 | 1.107 | 1.049 | 1.007 | 0.965 | 0.934 | 0.903 | 0.868
323.15 K | 1.121 | 1.068 | 0.961 | 0.91 | 0.869 | 0.819 | 0.795 | 0.787 | 0.732

CCCO + CCO
101 kPa
Settings | viscosity [mPa·s]
293.15 K, x2 = 0.5 | 1.564
293.15 K, x2 = 0.75 | 1.34
298.15 K, x2 = 0.158 | 1.759
298.15 K, x2 = 0.25 | 1.64
298.15 K, x2 = 0.303 | 1.64
298.15 K, x2 = 0.439 | 1.522
298.15 K, x2 = 0.5 | 1.407
298.15 K, x2 = 0.566 | 1.408
298.15 K, x2 = 0.684 | 1.319
298.15 K, x2 = 0.796 | 1.233
298.15 K, x2 = 0.902 | 1.169
303.15 K, x2 = 0.25 | 1.47
303.15 K, x2 = 0.5 | 1.26
308.15 K, x2 = 0.25 | 1.314
308.15 K, x2 = 0.5 | 1.139
308.15 K, x2 = 0.75 | 0.99
313.15 K, x2 = 0.25 | 1.183
313.15 K, x2 = 0.5 | 1.032
313.15 K, x2 = 0.75 | 0.903
318.15 K, x2 = 0.5 | 0.938
318.15 K, x2 = 0.75 | 0.824
323.15 K, x2 = 0.25 | 0.969
323.15 K, x2 = 0.5 | 0.854
323.15 K, x2 = 0.75 | 0.755

OC(C(F)(F)F)C(F)(F)F + CC(C)=O
298.15 K, 101 kPa
Settings | viscosity [mPa·s]
x2 = 0.2 | 1.35
x2 = 0.4 | 0.964
x2 = 0.5 | 0.838
x2 = 0.6 | 0.658
x2 = 0.8 | 0.45
x2 = 0.9 | 0.369
x2 = 0.95 | 0.336

CC=CC(=O)O + CCOC(C)=O
viscosity [mPa·s], 101 kPa
Settings | x1 = 0.0495 | x1 = 0.0995 | x1 = 0.1509 | x1 = 0.1971 | x1 = 0.2463 | x1 = 0.2605
298.15 K | 0.4663 | 0.5094 | 0.5447 | 0.5907 | 0.6329 | 0.6467
303.15 K | 0.4417 | 0.4788 | 0.5181 | 0.5583 | 0.5921 | 0.6093
313.15 K | 0.4005 | 0.4309 | 0.4587 | 0.494 | 0.5254 | 0.5496
323.15 K | 0.361 | 0.3895 | 0.413 | 0.4469 | 0.4704 | 0.4917

COCCOCCOC + ClC(Cl)(Cl)Cl
298.15 K, 101.33 kPa
Settings | viscosity [mPa·s]
x1 = 0.0934 | 0.965
x1 = 0.1967 | 0.995
x1 = 0.3018 | 1.023
x1 = 0.4053 | 1.044
x1 = 0.4892 | 1.059
x1 = 0.5352 | 1.06
x1 = 0.592 | 1.057
x1 = 0.6503 | 1.052
x1 = 0.6902 | 1.043
x1 = 0.7963 | 1.031
x1 = 0.8656 | 1.019
x1 = 0.9021 | 1.011
x1 = 0.9343 | 1.001

CO/N=C(\C(=O)N[C@@H]1C(=O)N2C(C(=O)[O-])=C(CSc3nc(=O)c(=O)[n-]n3C)CS[C@H]12)c1csc(N)n1.[Na+].[Na+] + O
viscosity [mPa·s], 100 kPa
Settings | 293.15 K | 298.15 K | 303.15 K | 308.15 K | 313.15 K
x1 = 9e-05 | 1.012 | 0.8968 | 0.8033 | 0.7267 | 0.6584
x1 = 0.00018 | 1.016 | 0.9026 | 0.807 | 0.7308 | 0.6615
x1 = 0.000349 | 1.053 | 0.935 | 0.829 | 0.744 | –
x1 = 0.000873 | 1.12 | 0.994 | 0.885 | 0.794 | –
x1 = 0.0009 | 1.03 | 0.9163 | 0.8185 | 0.7413 | 0.6726
x1 = 0.00139 | 1.2 | 1.062 | 0.945 | 0.849 | –
x1 = 0.002501 | 1.399 | 1.231 | 1.1 | 0.982 | –
x1 = 0.003119 | 1.527 | 1.348 | 1.195 | 1.07 | –
x1 = 0.003887 | 1.701 | 1.495 | 1.323 | 1.184 | –
x1 = 0.004766 | 1.918 | 1.674 | 1.48 | 1.322 | –
x1 = 0.005482 | 2.122 | 1.858 | 1.638 | 1.455 | –

Oc1ccccc1 + O
viscosity [mPa·s], 101 kPa
Settings | 293.15 K | 303.15 K | 313.15 K | 323.15 K
x1 = 0.004 | 1.056 | 0.8342 | 0.6816 | 0.5696
x1 = 0.008 | 1.107 | 0.8703 | 0.7185 | 0.5898
x1 = 0.01 | 1.16 | 0.9071 | 0.737 | 0.611
x1 = 0.02 | 1.215 | 0.9485 | 0.7664 | 0.634
x1 = 0.021 | – | – | – | 0.66
x1 = 0.31 | – | 2.972 | 2.253 | 1.775
x1 = 0.36 | 4.372 | 3.153 | 2.383 | 1.858
x1 = 0.43 | 4.731 | 3.393 | 2.553 | 1.981
x1 = 0.52 | 5.273 | 3.742 | 2.792 | 2.164
x1 = 0.63 | 6.146 | 4.288 | 3.161 | 2.42
x1 = 0.78 | – | – | 3.77 | –
